# Experimental data: patent US11331364B2, “Use for JNK inhibitor molecules for treatment of various diseases” (Xigen Inflammation Ltd., priority 2014, dated 2022)
# “Also recorded” adds a separate entry of the source. Square brackets hold non-standard residues; d marks the D form. Peptide text beside a SMILES is read from it.
# Tests used:
# [1] = test system: THP1 differentiated macrophages; experiment: LPS-induced cytokine release in PMA differentiated THP1 macrophages (ELISA); assay type: cell-based, human
# Description: In the following the procedure will be set forth describing how the released amount of several human cytokines after ligand induced secretion from human cells (Blood, WBC, PBMC, purified primary lymphocytes, cell lines, . . . ) was measured.
# The technique used is a Sandwich ELISA, which allows measuring the amount of antigen between two layers of antibodies (i.e. capture and detection antibody). The antigen to be measured must contain at least two antigenic sites capable of binding to antibody, since at least two antibodies act in the sandwich. Either monoclonal or polyclonal antibodies can be used as the capture and detection antibodies in Sandwich ELISA systems. Monoclonal antibodies recognize a single epitope that allows fine detection and quantification of small differences in antigen. A polyclonal is often used as the capture antibody to pull down as much of the antigen as possible.
# The method may be used to determine the effect of the JNK inhibitors of the present invention in vitro/cell culture. At non toxic doses, compound efficacy is indicated by the decrease of the cytokine levels (the variation of optical density (absorbance at 450 nm)) as compared to non-treated samples and is monitored by ELISA. Results are express in ng/ml.
# In the following the procedure will be set forth describing how cytokine production from human PMA differentiated THP1 cells challenged by LPS for 6 h was induced in order to test the ability of JNK inhibitors of the present invention, in particular of a JNK inhibitor with SEQ ID NO: 172, to reduce stimulation-induced cytokine release. THP1 cells were stimulated ex-vivo by different ligands for the readout of cytokine release. At non toxic doses, JNK inhibitor efficacy is indicated by the decrease of the cytokine levels as compared to non-treated samples and is monitored by ELISA. The toxicity of the compound are evaluated by the reduction of a tretazolium salt (MTS) to formazan, giving a purple colour.
# The cells were counted. […]
# [2] = test system: Imiquimod-induced psoriasis in mice; experiment: Imiquimod-induced psoriasis, ear histopathology; assay type: in vivo, mouse
# Description: Female BALB/cAnNCrl mice (Charles River, age 8 to 10 weeks at study start) have been assigned to the following groups (treatment schedule):
# In this experiment, two positive controls have been utilized. Firstly, Prednisolone at 10 mg/kg (vehicle: 1% Hydroxyethylcellulose, 0.25% Polysorbate 80, and 0.05% Antifoam in purified water) has been dosed daily and orally (group “Prednisolone”). Secondly, Dexamethasone has been administered at 0.5 mg/kg (vehicle: sterile 0.9% NaCl) on days 1, 4 and 7 via intravenous route.
# On day 8, animals have been sacrificed and the tissue (ear) has been fixed in 10% neutral buffered formalin. For histopathology hematoxylin-and-eosin-stained sections (cross cut) have been prepared and microscopic evaluation on the collected tissues from all animals has been performed. Methods and end-points for histopathology were similarly described in the van der Fits (2009) paper in that inflammation, epidermal hyperplasia, epidermal hyperkeratosis (rather than parakeratosis) were observed and recorded for severity grade, whereby the respective methodology from Van der Fits et al. (The Journal of Immunology 2009, 182, P. 5836-5845) is hereby incorporated by reference. Histopathology grading scores were excluded for either skin or ear in animals with secondary inflammatory processes (full thickness epidermal ulcers). Scores were averaged by group and standard deviation and statistical significance were calculated. […] Formalin-fixed, paraffin embedded skin from the dorsal surface of the mouse (BALB/c) was stained with hematoxylin and eosin (H&E) stain and assessed microscopically. An important difference from the above reference and to describe in more detail the observations of the present study: Hyperkeratosis can be defined specifically as orthokeratotic (no retained nuclei) or parakeratotic (retained nuclei). Either can occur normally in various anatomical locations and depending on species; however, both conditions are well defined in particular disease states. The van der Fits paper describes their Imiquimod (IMQ)-induced psoriasis model as causing parakeratotic hyperkeratosis similar to what is seen in the human condition, and that was a defined end-point for this study. However, the Danilenko et al. (Veterinary Pathology 2008 45:563) has shown that many rodent psoriasis models have orthokeratotic hyperkeratosis. […] The more general term ‘hyperkeratosis’ was used for grading end-points and describe in the text what type was seen (primarily orthokeratotic).
# Microscopic Histopathology end-points were graded as such: […]
# [3] = test system: established type II collagen arthritis in rats; experiment: Chronic established type II collagen arthritis, daily IV 14 days; assay type: in vivo, rat
# Excerpt: Rat collagen arthritis is an experimental model of polyarthritis that has been widely used for preclinical testing of numerous anti-arthritic agents that are either under preclinical or clinical investigation or are currently used as therapeutics in this disease. […] Animals were terminated on arthritis day 14.
# [4] = vs disease controls, IV QD d1-14, Dex 0.05 mg/kg, SEQ ID NO: 172 up to 5 mg/kg
compound,measurement,setting,value
"CC(C)C[C@H](NC(=O)[C@H](CC(N)=O)NC(=O)[C@H](CC(C)C)NC(=O)[C@@H](NC(=O)[C@@H](C)NC(=O)[C@@H]1CCCN1C(=O)[C@H](CCCNC(=N)N)NC(=O)[C@@H](CCCCN)NC(=O)[C@@H]1CCCN1C(=O)[C@H](CCCNC(=N)N)NC(=O)[C@@H](CCCNC(=N)N)NC(=O)[C@H](CCCNC(=N)N)NC(=O)[C@H](CCCNC(=N)N)NC(=O)[C@H](CCC(N)=O)NC(=O)[C@@H](CCCNC(=N)N)NC(=O)[C@H](CCCNC(=N)N)NC(=O)[C@H](CCCCN)NC(=O)[C@H](CCCCN)NC(=O)[C@H](N)CCCNC(=N)N)[C@@H](C)O)C(=O)N[C@H](Cc1ccccc1)C(N)=O [SEQ ID NO: 172, rKKRrQRRrRPkRPaTLNLf] (H-[dR]KKR[dR]QRR[dR]RP[dK]RP[dA]TLNL[dF]-NH2; N-terminus assumed)",LPS-induced IL6 release,[1]; LPS added for 6 h,"higher potency than D-TAT-IB1 (SEQ ID NO: 197), dTAT (SEQ ID NO: 45) and SP 600125; also recorded: higher potency than D-TAT-IB1 (SEQ ID NO: 197) and L-TAT-IB1 (SEQ ID NO: 196)"
same,LPS-induced TNFα release,"[1]; PMA/THP1 differentiated macrophages, LPS","higher potency than D-TAT-IB1 (SEQ ID NO: 197), dTAT (SEQ ID NO: 45) and SP 600125; also recorded: higher potency than D-TAT-IB1 (SEQ ID NO: 197) and L-TAT-IB1 (SEQ ID NO: 196)"
same,LPS-induced cytokine and chemokine release,"[1]; THP1-PMA-differentiated macrophages, TNF, IL 6, MCP1, 6 h LPS",blocks LPS-induced cytokine and chemokine release
same,epidermal hyperkeratosis of the ear (average grades),"[2]; 0.02 mg/kg IV days 1, 4, 7",minimally decreased average grades
same,epidermal hyperplasia of the ear,"[2]; 0.2 mg/kg IV days 1, 4, 7",Minimal decreases in epidermal hyperplasia of the ear
same,inflammation of the ear (average grade) vs vehicle-IMQ,"[2]; 0.2 mg/kg IV days 1, 4, 7",decreased inflammation of the ear
same,inflammation of the ear (average grade) vs vehicle-IMQ,"[2]; 0.2 mg/kg IV days 1, 4, 7, listed as XG-104",significant differences from the vehicle control group
same,inflammation of the ear (average grade) vs vehicle-IMQ,"[2]; 2 mg/kg IV days 1, 4, 7",decreased inflammation of the ear
same,"ankle diameter AUC, reduction toward normal",[3]; 1 mg/kg IV QD d1-14,27%
same,inhibition of body weight loss vs disease controls,[3]; 1 mg/kg IV QD d1-14,21%
same,"ankle diameter AUC, reduction toward normal",[3]; 5 mg/kg IV QD d1-14,43%
same,"ankle histopathology, reduction of summed scores",[3]; 5 mg/kg IV QD d1-14,25%
same,"final paw weights, reduction toward normal",[3]; 5 mg/kg IV QD d1-14,26%
same,inhibition of body weight loss vs disease controls,[3]; 5 mg/kg IV QD d1-14,25%
same,"knee histopathology, reduction of summed scores",[3]; 5 mg/kg IV QD d1-14,73%
same,daily ankle diameter measurements,"[3]; 5 mg/kg IV QD, p<0.05 days 4-12",reduced toward normal
same,effect on organ weights,[3]; IV QD d1-14,no adverse effect on organ weights
same,spleen weights relative to body weight,[3]; [4],not significantly affected
same,thymus weights relative to body weight,[3]; [4],not significantly affected
